Laboratory results as given in patent US4921871A, “Enolamides, pharmaceutical compositions and methods of use thereof for treating inflammation” (Warner-Lambert Company, priority 1987, dated 1990).
Several values for one entry are separate records, joined by “and”; a condition that tells them apart may be missing. Equal values may be shown once. Read-outs that look alike come from different tables or passages of the source.

Biological target: T1, human leukocyte 5-lipoxygenase (Homo sapiens, UniProt P09917)
T1 construct: endogenous in cells; host or cells: leukocytes from fresh human blood
T1 sequence (P09917 1-674): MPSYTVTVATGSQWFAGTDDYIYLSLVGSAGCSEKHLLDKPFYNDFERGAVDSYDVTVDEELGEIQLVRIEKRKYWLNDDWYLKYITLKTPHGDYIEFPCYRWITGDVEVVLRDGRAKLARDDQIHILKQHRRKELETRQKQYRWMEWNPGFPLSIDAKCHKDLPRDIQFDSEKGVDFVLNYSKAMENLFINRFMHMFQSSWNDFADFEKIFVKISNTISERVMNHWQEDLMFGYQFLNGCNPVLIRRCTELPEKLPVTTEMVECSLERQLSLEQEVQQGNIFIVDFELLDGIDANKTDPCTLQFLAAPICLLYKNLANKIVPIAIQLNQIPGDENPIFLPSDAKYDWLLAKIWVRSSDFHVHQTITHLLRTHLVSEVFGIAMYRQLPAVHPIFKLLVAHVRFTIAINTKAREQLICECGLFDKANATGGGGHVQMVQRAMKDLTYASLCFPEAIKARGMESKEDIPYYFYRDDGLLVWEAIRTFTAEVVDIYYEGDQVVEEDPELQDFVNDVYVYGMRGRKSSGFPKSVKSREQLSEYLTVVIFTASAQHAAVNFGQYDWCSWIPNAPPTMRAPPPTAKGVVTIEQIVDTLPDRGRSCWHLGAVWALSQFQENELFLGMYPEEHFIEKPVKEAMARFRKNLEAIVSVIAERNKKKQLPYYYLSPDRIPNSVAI
Assay: 5-Lipoxygenase assay in human leukocytes, formation of 5-HETE (5LOA; 5LOA1 or 5LOA2 not specified)
Format: cell-based
From the text: To Evaluate the Effect of Each Compounds as a 5-Lipoxygenase Inhibitor in Comparison to Standard Reference Agents in Human Leukocytes (5LOAl)
The purpose of this assay is to evaluate the activity of each compound as an inhibitor of human leukocyte 5-lipoxygenase.
Arachidonic acid and calcium ionophore A23l87 are obtained from Sigma (St. Louis, Mo.). Silica gel plates, GF are obtained from Analtech (Newark, Del.). Arachidonic acid, (1-^14 C) and 5-HETE (^3 H), 5 (S)-hydroxy-6-trans, 8,11,14-cis eicosatetraenoic acid, are obtained from New England Nuclear (Boston, Mass.). Six percent Dextran-70 in 0.9% NaCl is obtained from Cutter Labs (Berkeley, Calif.).
Fresh blood from normal adult men who had not received any drugs for at least the previous five days is obtained by the Community Research Clinic (WL/PD) using venipuncture and collected into heparinized vacuotainer tubes. To every 100 ml of pooled blood is added 25 ml of dextran solution (6% dextran -70 in 0.9% sodium chloride containing 3% dextrose) and this is mixed gently in a plastic cylinder. The mixture is left to stand at room temperature for at least 90 minutes. The upper layer which is rich in leukocytes and platelets is then carefully decanted into 50 ml plastic tubes and centrifuged at about 100×g for eight minutes in an IEC centrifuge and rotor number 269 (about 600 rpm). The supernatant fluid is discarded and the pellet is resuspended in 10 ml of 0.87% ammonium chloride for exactly two minutes. This procedure is to lyse completely contaminating red blood cells. Leukocytes are then separated by centrifugation for ten minutes. The pellet is washed three times by suspension in 20 ml PBS (sodium chloride, 7.1 g; Na2 HPO4, 1.15 g; KH2 PO4, 0.2 g, and KCl, 0.2 g/L) and centrifuged as before. The final pellet is suspended in PBS containing 0.87 mM CaCl2. Viability of the cells is then checked using trypan blue exclusion method and is found to be over 90%.
Leukocyte cells in suspension (0.98 ml) are incubated with or without test compounds for five minutes at 37° C. in a shaking water bath. At this time a 17 μl mixture is prepared per 1 ml of cell suspension: 100 mM arachidonic acid, 1 μl, 0.05 μCi ^14 C-arachidonic acid in 5 .rho.l; 1 mM calcium ionophore A23187, 10 μl (1). This mixture is added and the incubation continued for five minutes. The reaction is stopped by adding four volumes of absolute ethanol and the mixture is kept in ice for 30 minutes. The floculated precipitate is separated by centrifugation at about 37,000×g for 20 minutes (Beckman Instruments rotor number 40). The alcohol extract is taken to dryness under a stream of nitrogen and the residue is dissolved in 100-200 μl absolute ethanol. At the time any turbidity is removed by centrifugation. An aliquot (25-50 μl) is applied onto 20×20 cm silica gel TLC plate and developed using the following solvent system: diethyl ether, petroleum ether (2040° C.), acetic acid (50:50: 1 v/v). Zones of 1 cm apart are scraped from the TLC plate and transferred to mini-vials. Methanol (0.5 ml) is added to dissolve the radioactivity adsorbed to the silica gel and scintillation fluid (H.P., Beckman), 5 ml is then added and vials are counted in a liquid scintillation counter. A sample of ^3 H-5-HETE is applied and used for the identification of the formed 5-HETE.
Total radioactivity in the test as well as the control samples are normalized and the amount of 5-HETE present is calculated accordingly.
IC50 values are defined as the concentrations of test agents which caused a 50% inhibition of the formation of 5-HETE as compared to control and are determined by inspection of the concentration-response curves.
The formation of 5-HETE in human leukocytes is considered a measure of 5-lipoxygenase activity. The protocol is described in the following.
Fresh heparinized or EDTA treated human blood is mixed with 6% dextran-3% dextrose in isotonic saline in the ratio 0.25 ml dextran solution per 1.0 ml blood. […]

Compound | 5LOA, % Inhibition (2.00 E -5 M) | 5LOA, % Inhibition (5.00 E -6 M) | 5LOA, % Inhibition | 5LOA, % Inhibition (2.00 E 0 M) | 5LOA, % Inhibition (1.00 E -5 M) | 5LOA, % Inhibition (4.00 E -5 M) | 5LOA, % Inhibition (8.00 E -5 M)
COc1ccc(CCc2ccc(NC(=O)C3=C(O)c4ccccc4S(=O)(=O)N3C)cc2)cc1OC [Example 83, N-[4-[2-(3,4-Dimethoxyphenyl)ethyl)phenyl]-4-hydroxy-2-methyl-2H-1,2-benzothiazine-3-carboxamide, 1,1-dioxide] | – | – | +1.6% | 9.2% | – | – | –
O=C(Nc1ccc(CCc2ccc(Cl)c(Cl)c2)cc1)C(=O)c1oc2cc3ccccc3cc2c1O [Example 113, Naphtho[2,3-b]furan-2-acetamide, N-[4-[2-(3,4-dichlorophenyl)ethyl]phenyl]-3-hydroxy-α-oxo] | 33.7% | 6.3% | – | – | 15.3% | – | –
O=C(Nc1ccc(CCc2ccc(Cl)c(Cl)c2)cc1)c1sc2ccccc2c1O [Example 144] | 42.5% | 36.0% | – | – | – | – | –

Results, then the compound that gave them:

5LOA, % Inhibition (2.00 E -5 M) | 5LOA, % Inhibition (5.00 E -6 M) | 5LOA, % Inhibition | 5LOA, % Inhibition (2.00 E 0 M) | 5LOA, % Inhibition (1.00 E -5 M) | 5LOA, % Inhibition (4.00 E -5 M) | 5LOA, % Inhibition (8.00 E -5 M) | Compound
19.0% | +7.3% | – | – | – | – | – | O=C(Nc1ccc(CCc2cc(C(F)(F)F)cc(C(F)(F)F)c2)cc1)c1sc2ccccc2c1O [Example 148, Benzo[b]thiophene-2-carboxamide, N-[4-[2-[3,5-bis-(trifluoromethyl)phenyl]ethyl]phenyl]-3-hydroxy]
– | – | – | – | 13.9% | 18.0% | – | CCCCCCCCCCc1ccc(NC(=O)C(=O)C2=C(O)c3ccccc3OC2)cc1 [Example 151, N-(4-Decylphenyl)-4-hydroxy-α-oxo-2H-1-benzopyran-3-acetamide]
10.1% | +7.6% | – | – | – | 2.3% | – | O=C(Nc1ccc(CCc2ccc(Cl)c(Cl)c2)cc1)C(=O)C1=C(O)c2ccccc2OC1 [Example 155, 2H-1-Benzopyran-3-acetamide, N-[4-[2-(3,4-dichlorophenyl)ethyl]phenyl]-4-hydroxy-α-oxo]
38.1% and 33.9% | – | – | – | 23.0% | 76.3% | 79.2% | COc1ccc(CCc2ccc(NC(=O)C(=O)C3=C(O)c4ccccc4OC3)cc2)cc1OC [Example 152]
